Like-named read-outs stand apart in the source and are kept apart here.
Key:
[1] = test system: kidney disease model rats; conditions: cited from earlier work
[2] = test system: kidney disease model rats; test: Action to depress blood pressure in kidney disease model rats (tail cuff); format: in vivo, Sprague-Dawley female rats; conditions: 20 mg/kg per os
Experimental: (§1) The compounds of the present invention and the reference substance were forcedly administered per os to kidney disease model rats, and the action to depress blood pressure was observed. The kidney disease model rats were prepared by ligature of branches of renal artery in accordance with the conventional method, that is, the left hilum renalis of Sprague-Dawley female rats was exposed under anesthesia, and one of four secondary branches of renal artery was left unligated, while the remaining three branches were ligated, respectively. After a week, the hilum renalis (artery, vein, and ureter) of the right kidney were further ligated to thereby prepare the rats whose renal function was lowered to approximately 1/8 of the normal function. Each group consisted of eight rats. The drugs to be tested (20 mg/kg) were administered to each administering group, and only water was administered to control group. After two days from the administration, the systolic blood pressure was measured by the tail cuff method using a blood pressure measuring apparatus (UR5000; Ueda).

[3] = test system: hyperlipemia model rats; conditions: cited from earlier work
[4] = test system: renal dysfunction model rats; conditions: cited from earlier work
[5] = test system: kidney disease model rats; test: Renal function indicatory value (action to kidney diseases); format: in vivo, Sprague-Dawley female rats; conditions: 20 mg/kg/day per os, two weeks
Experimental: The kidney disease model rats were prepared by ligature of branches of renal artery in accordance with the conventional method, that is, the left hilum renalis of Sprague-Dawley female rats was exposed under anesthesia, and one of four secondary branches of renal artery was left unligated, while the remaining three branches were ligated, respectively. […] Each group consisted of eight rats. The drugs to be tested (20 mg/kg) were administered to each administering group, and only water was administered to control group. After two days from the administration, the systolic blood pressure was measured by the tail cuff method using a blood pressure measuring apparatus (UR5000; Ueda).
The kidney disease model rats were prepared as in Example 21. Fifteen groups (8 rats per group) were sleeked in a manner so that there were no major differences between each group in the serum creatinine value and the urea nitrogen value indicating renal function. The rats in each group were allowed to freely take up feed and water. […] To the rats in the control group, only water was forcedly administered per os every day. After two weeks, 0.2 ml of blood was collected from the carotid artery of the rat under anesthesia, and centrifuged to obtain serum. Using 25 μl of the serum, serum creatinine (Scr) was measured by a creatinine analytical instrument (Beckman). Using 10 μl of the serum, urea nitrogen (BUN) was measured by a BUN analytical instrument (Beckman). Creatinine clearance was evaluated as follows:
After serum creatinine measurement, rats were placed in urinary metabolic cages for 24 hours to collect urine. Urinary creatine concentration (Ucr) was measured by a creatinine analytical instrument, and total volume of urination (Uvol) was also measured. Creatinine clearance (CCr) was calculated by the following formula: [formula]

[6] = Acute toxicity, single oral dose in mice; format: in vivo, ICR female mice; conditions: 500 mg/kg single oral dose, 6 days, 5 per group
Experimental: Five-week-old ICR female mice (5 mice per group) were bred for acclimation for a week. Then, the compounds of the present invention were dissolved or dispersed in an aqueous solution of 0.5% methylcellulose, and orally administered to the mice in a single dosage (500 mg/kg).

[7] = molecular target: T1, angiotensin II receptor subtype 1 (AT1) (Oryctolagus cuniculus, UniProt P34976); test: Binding to angiotensin II receptor subtype 1 (AT1); parameters: species or system rabbits (adrenal glands); conditions: 100 μM; 3H-angiotensin II tracer
T1 construct: from adrenal glands in rabbits; from tissue; host or cells: rabbit adrenal glands
T1 sequence (P34976 1-359): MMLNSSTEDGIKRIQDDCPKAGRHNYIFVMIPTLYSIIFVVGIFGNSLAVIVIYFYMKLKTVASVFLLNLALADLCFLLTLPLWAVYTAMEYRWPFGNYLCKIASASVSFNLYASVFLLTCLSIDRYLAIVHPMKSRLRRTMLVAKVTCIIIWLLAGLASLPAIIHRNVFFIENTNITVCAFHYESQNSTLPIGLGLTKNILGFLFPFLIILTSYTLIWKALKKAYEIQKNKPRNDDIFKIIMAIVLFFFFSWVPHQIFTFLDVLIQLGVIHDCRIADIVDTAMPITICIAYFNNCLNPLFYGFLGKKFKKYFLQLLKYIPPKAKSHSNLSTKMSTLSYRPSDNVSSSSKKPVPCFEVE
Experimental: (§2) In this Example, the affinity to the angiotensin II receptor subtype 1 or subtype 2 was evaluated by a binding assay in accordance with the method described in Biochem. Pharmacol., 33, 4057-4062 (1984).
(§3) Specifically, the measurement of the total binding in the presence of each drug was performed as follows:
(§4) A mixture (final volume=0.25 ml) of a drug in a given concentration (the drug was dissolved in DMSO, and diluted to a double volume with a buffer attached to a drug discovery system to prepare sample for the assay; 0,025 ml), a tracer (0.025 ml), and receptors (0.2 ml) was incubated [in the case of the angiotensin II receptor subtype 1 (AT1), at room temperature for 3 hours, and in the case of the subtype 2 (AT2), at 37° C. for 1 hour]. Then, the reaction mixture was filtered with suction (GF/C filter was used in AT1, and GF/B filter was used in AT2). The filter papers after filtration with suction (the tracer bound to the receptors) were counted by a γ-well counter (ARC-500, Aloka). The non-specific bindings were measured by repeating the above method, except that a large excess amount of a displacer was added. The specific binding of the drug in the given concentration was calculated by subtracting the non-specific binding from the total binding, respectively.
(§5) In AT1 and AT2, the percentages to inhibit the bindings of radioactive ligands (tracer) to receptors by the drugs to be tested (IC50 value of concentration to show 50% inhibition, or binding inhibition % in 100 μM) were measured, using the drugs to be tested and control drugs in the given concentration.

[8] = test system: kidney disease model rats; test: Action to survival time of kidney diseased animals; format: in vivo, Sprague-Dawley female rats; conditions: 20 mg/kg/day per os; observation eight weeks (upper limit); control 5.0
Experimental: as §1
The kidney disease model rats were prepared as in Example 21. Fifteen groups (8 rats per group) were prepared in a manner so that there was no major difference between the groups in the serum creatinine value and the urea nitrogen value indicating renal function. The rats in each group were allowed to freely take up feed and water. […] To the rats in the control group, only water was forcedly administered per os every day. If kidney diseases are aggravated, the rat will die of uremia. Thus, the survival time was observed as comprehensive indication of the improvement effect on the kidney diseases. The observation period was eight weeks. Thus if all rats survived, the average survival time is eight weeks and it is an upper limit.

[9] = molecular target: T2, angiotensin II receptor subtype 2 (AT2) (Bos taurus, UniProt G5E6F7); test: Binding to angiotensin II receptor subtype 2 (AT2); parameters: species or system bovine (cerebellar cortex); conditions: 125I-Tyr4-angiotensin II tracer, 37° C., 1 hour
T2 construct: from cerebellar cortex in bovine; from tissue; host or cells: bovine cerebellar cortex
T2 sequence (G5E6F7 1-362): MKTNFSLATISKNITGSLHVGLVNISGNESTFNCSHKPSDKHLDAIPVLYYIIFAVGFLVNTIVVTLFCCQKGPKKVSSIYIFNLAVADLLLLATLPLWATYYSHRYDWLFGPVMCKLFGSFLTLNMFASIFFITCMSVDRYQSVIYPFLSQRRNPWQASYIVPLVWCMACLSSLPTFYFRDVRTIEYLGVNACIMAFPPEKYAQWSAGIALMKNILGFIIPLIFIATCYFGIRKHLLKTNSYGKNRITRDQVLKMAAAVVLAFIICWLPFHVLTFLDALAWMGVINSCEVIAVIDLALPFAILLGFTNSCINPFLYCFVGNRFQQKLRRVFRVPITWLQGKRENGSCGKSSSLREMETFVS
Experimental: as §2, §3, §4, §5
from cerebellar cortex in bovine
tracer: ^125 I-Tyr^4 -angiotensin II

For `CCCN(Cc1ccc(-c2ccccc2-c2nnn[nH]2)cc1)c1ncccc1C(=O)O` [A-81988, 2-[N-propyl-N-[[2'-(1H-tetrazol-5-yl)biphenyl-4-yl]methyl]amino]pyridine-3-carboxylic acid], the blood pressure [1] is listed as “the reduction of blood pressure was observed” and the proteinuria [1] is listed as “proteinuria was improved”.
For `CCCCc1nc(Cl)c(CO)n1Cc1ccc(-c2ccccc2-c2nnn[nH]2)cc1` [DuP753, 2-butyl-4-chloro-5-(hydroxymethyl)-1-[[2'-(1H-tetrazol-5-yl)biphenyl-4-yl]methyl]imidazole], the “action to depress blood pressure (in words)” value ([2]; comparison with control group) is given as “clearly showed the action to depress the blood pressure”, the blood pressure ([3]; large dose more effective against the kidney disease) is given as “an evident reduction of blood pressure was observed” and the blood pressure ([3]; lower dose) is given as “without practical effect to blood pressure”. For the same molecule, the “effect on kidney disease” value ([3]; lower dose) was “the kidney disease was improved”, the blood pressure [4] was “the reduction of blood pressure accompanied” and the “effect on proteinuria and glomerulosclerosis” value [4] was “effective against proteinuria and glomerulosclerosis”.
In the case of `CCCCC(=O)Nc1c(Cl)ncnc1NCc1ccc(C(=O)OC)cc1` [Compound No. 1, methyl 4-[[(6-chloro-5-valeramido)pyrimidin-4-yl]aminomethyl]benzoate], the “Blood pressure (average systolic)” value ([2]; after two days, control 210 mmHg) is reported as 210 mmHg, the “Creatinine clearance (CCr)” value ([5]; control 0.20) is reported as 0.29 mL/min and the “Creatinine (serum, Scr)” value ([5]; control 2.0) is reported as 1.7 mg/dL. The “Urea nitrogen (BUN)” value ([5]; control 100) was 84 mg/dL, the “Number of deaths/number of survivals” value [6] was 0/5 and the inhibition at 100 µM [7] was 11%. It also gave an Average survival time [8] of 6.9 weeks and an inhibition at 100 µM [9] of 0%.
